Legend:
human SIRT5 = target: T1, human SIRT5 (Homo sapiens, UniProt Q9NXA8); assay: Fluorescence-based sirtuin subtype selectivity assay, SIRT5, single dose 50 μM; format: biochemical; conditions: 50 μM compound; mean, n = 2
T1 construct: purchased Reaction Biology Corporation (Malvern, USA), contract assay
T1 sequence (Q9NXA8 37-310): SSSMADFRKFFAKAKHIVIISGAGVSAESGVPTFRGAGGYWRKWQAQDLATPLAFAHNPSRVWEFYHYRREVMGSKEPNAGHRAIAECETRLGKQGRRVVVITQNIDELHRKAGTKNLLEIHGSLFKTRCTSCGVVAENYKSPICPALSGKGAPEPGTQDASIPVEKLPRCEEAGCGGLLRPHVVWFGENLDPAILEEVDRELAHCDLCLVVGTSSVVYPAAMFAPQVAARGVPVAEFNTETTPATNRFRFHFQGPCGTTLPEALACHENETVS
Protocol: IC50 values against SIRT2 are given as mean with standard deviations (n = 3). Inhibition percentages at 50 μM for SIRT1, 3 and 5 are given as mean without standard deviations (n = 2)
The determination of subtype selectivity against SIRT1, 3 and 5 was performed by measuring the residual enzyme activity after treatment with the corresponding inhibitor at a fixed concentration of 50 μM and subsequent calculation of the percentage inhibition.
The determination of inhibitory activity on the corresponding sirtuin enzymes was carried out based on a fluorescence-based assay commissioned by Reaction Biology Corporation (Malvern, USA) following an internal experimental protocol. Test substances were prepared in DMSO, delivered into the respective enzyme mixture (prepared with reaction buffer: Tris-HCl, pH = 8) and incubated for 10 minutes at 30 °C. Subsequently the substrate mixture (NAD^+ and a 7-amino-4-methylcoumarin-based fluorogenic peptide substrate) was added to initiate the deacetylation reaction. After 2 hours incubation at 30 °C, 2 mM nicotinamide (universal sirtuin inhibitor, to stop the reaction) and protease-based developer (to generate fluorescence by the cleavage of 7-amino-4-methylcoumarin) was added. At 30 °C 1 hour later, the respective fluorescence was measured (extinction/emission = 360 nm/460 nm). The inhibitory effect of the test compounds is indirectly proportional to the amount of converted fluorescent substrate standardized as 100% activity of the control without inhibitor. The test substances were tested in 10-dose IC50 triplicate mode, with 3-fold serial dilution starting at 50 μM final reaction concentration and if necessary, starting at 100 μM. For each serially diluted replicate of the triplicate, an IC50 value was determined by sigmoidal curve fitting, resulting in three IC50 values, from which the mean and corresponding standard deviation were subsequently calculated. Data processing was performed based on Prism 8.0.2 software (GraphPad Software, Boston, USA). Subtype selectivity on SIRT1, SIRT3 and SIRT5 was evaluated in a single dose duplicate mode at 50 μM final test compound concentration according to previous outlined internal protocol of Reaction Biology Corporation by determining the enzyme activity of the respective sirtuins in % (no inhibitor control as 100% activity).

[1] = target: T2, NanoLuc-SIRT2 fusion construct (Homo sapiens, UniProt Q8IXJ6); assay: NanoBRET cellular target engagement assay in HEK293T cells; format: cell-based; conditions: stable HEK293T cell line expressing NanoLuc-SIRT2; 2 μM tracer; 2 hours at 37 °C; read-out: NanoBRET EC50 (cellular SIRT2 target engagement)
T2 construct: HEK293T cells expressing the NanoLuc-tagged SIRT2(50-356) fusion protein were used; expressed in transfected cells; transient transfection for SH10
T2 sequence (Q8IXJ6 50-356): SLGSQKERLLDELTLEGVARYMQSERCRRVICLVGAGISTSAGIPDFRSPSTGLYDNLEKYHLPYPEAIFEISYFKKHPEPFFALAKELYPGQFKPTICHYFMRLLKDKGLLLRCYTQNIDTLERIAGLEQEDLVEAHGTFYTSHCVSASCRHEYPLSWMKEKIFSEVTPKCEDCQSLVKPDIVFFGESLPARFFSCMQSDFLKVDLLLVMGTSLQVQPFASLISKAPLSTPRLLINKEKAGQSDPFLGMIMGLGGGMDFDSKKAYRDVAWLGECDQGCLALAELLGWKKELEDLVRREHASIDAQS
Protocol: For the assay, cells were trypsinized, resuspended in Opti-MEM® reduced serum medium, and adjusted to a concentration of 2 × 10^5 cells per mL. […] Serially diluted inhibitor and tracer were added to the cell suspension, and 100 μL were seeded into 96-well white, sterile, nonbinding surface plates. […] For BRET measurements, NanoBRET NanoGlo Substrate (Promega cat. #N1571) was added to the wells according to the manufacturer's protocol. […] The BRET ratio was calculated as the ratio of acceptor to donor signal, and data were normalized to vehicle-treated controls. Apparent intracellular binding affinities (EC50 values) were determined by fitting dose–response curves using nonlinear regression analysis in GraphPad Prism.

inhibition at 50 µM (human SIRT5): 7%
EC50 [1]: 15 nM
SMILES: Cc1cc(C)nc(SCC(=O)Nc2cccc(COc3ccc(NC(=O)c4cnn(C)c4)c(Cl)c3)c2)n1 [Compound 29, N-(2-Chloro-4-((3-(2-((4,6-dimethylpyrimidin-2-yl)thio)acetamido)benzyl)oxy)phenyl)-1-methyl-1H-pyrazole-4-carboxamide]

From PMC12412615, “Tailored SirReal-type inhibitors enhance SIRT2 inhibition through ligand stabilization and disruption of NAD^+ co-factor binding” (RSC Medicinal Chemistry, 2025)
